Test results from ChEMBL document CHEMBL6087449, “Identification of an Isoxazole Derivative as an Antitubercular Compound for Targeting the FadD Enzymes of Mycobacterium tuberculosis” (J Med Chem, 2025).
In brackets after ≈: the same amount, converted by molar mass.

What was measured:
[1] = system: Mycobacterium tuberculosis; test: Antitubercular activity against Mycobacterium tuberculosis H37Rv assessed as inhibition of bacterial growth incubated for 5 days by Alamar Blue based assay; type: functional, organism-based; details: 120 h
[2] = system: Mycobacterium tuberculosis; test: Antitubercular activity against Mycobacterium tuberculosis by alamar blue assay; type: functional

Compound	IC50 [1]	MIC [2]
Cc1ccc(O)c(-c2cc(C(F)(F)F)no2)c1	10.5 µg/mL (≈ 43.2 µM)	–
Nc1ncnc2c1ncn2[C@@H]1O[C@H](COS(=O)(=O)NC(=O)c2ccc(O)cc2)[C@@H](O)[C@H]1O	–	> 800 µM
Cc1ccc(O)c(-c2cc(C(F)(F)C(F)F)no2)c1	12.8 µg/mL (≈ 46.5 µM)	–
Oc1ccccc1-c1cc(C(F)(F)F)no1	11.7 µg/mL (≈ 51.1 µM)	–
